{"source": "patent US20220193241A1", "about": "“AGENT TARGETING DOUBLE-MEMBRANE ORGANELLE DNA” (CHIBA-PREFECTURE, priority 2019, published 2022)", "format_in_all_cases": "cell-based", "key": {"A549 cells [1]": {"tested_on": "A549 cells", "experiment": "ROS production with MitoSOX Red", "conditions": "10 μM, 24 hours", "protocol": "(§1) In order to confirm the production induction of reactive oxygen species (ROS) by mitophagy, the production of reactive oxygen species was fluorescently observed with MitoSOX Red (Invitrogen). 10^4 A549 or PC14 cells were inoculated, cultured for 10 hours, then treated with 10 μM CCC021-TPP for 24 hours, then washed with PBS, and treated at 37° C. for 10 minutes with MitoSOX Red dissolved in 13 μL of DMSO and diluted into 5 μM (final concentration) with PBS. The cells were washed with PBS and then observed under SP8 confocal microscope."}, "PC14 cells [2]": {"tested_on": "PC14 cells", "experiment": "ROS production with MitoSOX Red", "conditions": "10 μM, 24 hours", "protocol": "as §1"}, "A549 cells [3]": {"tested_on": "A549 cells", "experiment": "Expression of inflammatory cytokines (SASP) by RT-qPCR", "conditions": "5 days after treatment", "protocol": "The expression of inflammation-related genes such as inflammatory cytokine genes is increased in senescent cells. It is known that a phenomenon called SASP (senescence-associated secretory phenotype) is thereby induced. In order to study whether this phenomenon was induced in the A549 cells, the cells were recovered 5 days after CCC021-TPP treatment in the same manner as in Example 1, and RNA extraction, RNA reverse-transcription, cDNA synthesis, and RT-qPCR were performed in the same manner as in Example 1 to examine the expression of inflammatory cytokines (IL-1A, IL-1B, IL-6, and IL-8) in the A549 cells and the PC14 cells. The primers used for the amplification of each gene are shown below. For qPCR, amplification was performed under conditions involving a holding stage of 50° C. for 2 min→95° C. for 10 min followed by 40 cycles of a cycling stage each involving 95° C. for 15 sec→60° C. for 1 min using Applied Biosystems(R) 7500 real-time PCR system, and melt curve analysis after amplification was conducted at a melt curve stage of 95° C. for 15 sec→60° C. for 1 min→95° C. for 15 sec→60° C. for 15 sec to confirm reaction specificity from the absence of primer dimer by-products or the like in PCR products."}, "A549 cells [4]": {"tested_on": "A549 cells", "experiment": "Synthetic lethality: cell morphology with CCC021-TPP and ABT-199 or A1155463", "conditions": "4 days", "protocol": "It was confirmed with the BCL2- and BCL-XL-specific inhibitor that the suppression of cell death in the cellular senescence of the A549 cells was presumably due to the BCL pathway. The type of BCL pathway inhibition, combined use of which could induce cell death (apoptosis) in the senescent cells of the A549 cells was studied. Five hundred A549 cells were inoculated to a 96-well plate and cultured for 24 hours. Then, change in cell morphology was photographed under an optical microscope either without administration (i.e., after DMSO treatment) or 4 days after treatment with 20 μM CCC021-TPP and 10 μM BCL2 inhibitor ABT-199 (compound venetoclax of No. 33 in FIG. 55-10) or 10 μM BCL-XL inhibitor A1155463 (compound of No. 16 in FIG. 55-6) each alone, or treatment by combined use of the same concentration of CCC021-TPP with the same concentration of ABT-199 or A1155463."}, "A549 cells [5]": {"tested_on": "A549 cells", "experiment": "WST assay of cell proliferation (CCC021-TPP)", "conditions": "Homo sapiens, 96 h; A549, 4 days", "protocol": "(§2) The proliferation suppressive effect of CCC021-TPP on cells having the A14582G mtDNA mutation was evaluated by WST assay. Both the mitochondrial DNA mutated cell line A549 and a PC14 cell line having no mutation were inoculated at 1×10^3 cells/well to 96-well plates (Thermo Fisher Scientific), cultured for 24 hours, and then treated with CCC021-TPP (final concentration: 0, 1, 5, 10, 20, 25, 50, and 100 μM). The cells were further cultured for 4 days and then morphologically observed under optical microscope IX71 (OLYMPUS, Tokyo, Japan). Then, cell survival rates were calculated using Cell counting kit-8 (DOJINDO, Kumamoto, Japan) according to the instruction manual. DMSO (FUJIFILM Wako Pure Chemical Corp.) (final concentration: 1%) was added as a control to cells.\n(§3) IC50 was calculated according to the following expression:\n(§4) IC50=10(LOG(A/B)×(50−C)/(D−C)+LOG(B))"}, "PC14 cells [6]": {"tested_on": "PC14 cells", "experiment": "WST assay of cell proliferation (CCC021-TPP)", "conditions": "PC14, 4 days", "protocol": "as §2, §3, §4"}, "A549 cells [7]": {"tested_on": "A549 cells", "experiment": "Synthetic lethality: cell morphology with CCC021-TPP and ABT-263", "conditions": "days 2 and 4", "text": "Since the suppression of cell death in the cellular senescence of the A549 cells was presumably due to the BCL pathway, it was believed that the apoptosis of cells whose cellular senescence was evoked by CCC021-TPP could be induced by combined use with ABT-263 (Cayman Chemical Company) serving as a senolytic drug and a BCL pathway inhibitor. Thus, the possibility of inducing the cell death of senescent cells by CCC021-TPP treatment and combined use with the BCL2/BCL-XL inhibitor ABT-263 was observed under an optical microscope to observe change in cell morphology. Five hundred A549 cells were inoculated to a 96-well plate, cultured for 24 hours, and then observed over time under an optical microscope either without administration or after administration of 20 μM CCC021-TPP and 10 μM ABT-263 each used alone or used concurrently, and cell morphology was photographed on days 2 and 4."}}, "data": [{"smiles": "CN(C)CCCNC(=O)CCNC(=O)c1cc(NC(=O)c2cc(NC(=O)CCNC(=O)c3nc(NC(=O)c4cc(NC(=O)c5cc(NC(=O)CCNC(=O)CCCC[P+](c6ccccc6)(c6ccccc6)c6ccccc6)cn5C)cn4C)cn3C)cn2C)cn1C", "note": "[CCC021-TPP]", "values": [{"measurement": "ROS production", "setting": "A549 cells [1]", "value": "excessive induction of ROS production in cytoplasm was observed"}, {"measurement": "ROS production", "setting": "PC14 cells [2]", "value": "rarely observed"}, {"measurement": "expression of IL-1A", "setting": "A549 cells [3]", "value": "significantly increased expression"}, {"measurement": "expression of IL-6", "setting": "A549 cells [3]", "value": "tendency to increase the expression"}, {"measurement": "expression of IL-8", "setting": "A549 cells [3]", "value": "significantly increased expression"}, {"measurement": "cell death (morphology)", "setting": "A549 cells [4]; 20 μM CCC021-TPP and 10 μM A1155463 used concurrently", "value": "markedly increased numbers of cells that underwent apoptosis"}, {"measurement": "cell death (morphology)", "setting": "A549 cells [4]; single administration: 20 μM CCC021-TPP, 10 μM ABT-199, 10 μM A1155463", "value": "Any finding indicating cell death was not obtained"}, {"measurement": "IC50", "setting": "A549 cells [5]", "value": 78.9, "unit": "µM"}, {"measurement": "IC50 (WST assay)", "setting": "PC14 cells [6]", "value": "incalculable"}, {"measurement": "cells that underwent apoptosis (morphology)", "setting": "A549 cells [7]; combined use of 20 μM CCC021-TPP and 10 μM ABT-263", "value": "cells that evidently underwent apoptosis were already found"}, {"measurement": "cells that underwent apoptosis (morphology)", "setting": "A549 cells [7]; each used alone: 20 μM CCC021-TPP, 10 μM ABT-263", "value": "not detected"}]}]}
